Measurements: patent US12576075B2, “Combination therapies for treating cancer” (Institute For Cancer Research, priority 2018, dated 2026)
Each block holds one molecule with its values, some of them ahead of it.

Tests used:
[1] = system: 786-O cells; experiment: Dose-dependent anti-proliferative effects on 786-O cells (dose response); type: cell-based, human; conditions: for EC50: Homo sapiens, 786-0, single drug dose response, read-out: ED50 (the source's name); for ED75 / ED90: single drug dose response
[2] = system: 786-O RCC cells; experiment: Cell viability, […]-BLUE assay, 786-O; type: cell-based, human; set-up: dose or concentration left out as unconfirmed; conditions: 72 hours
Description: (§1) Treatment with lonafarnib can reinstate sensitivity of RCC cells to TKIs. Pharmacological inhibition of FTase enhances the antitumor activity of sunitinib. Referring to FIG. 3, in Panel A, PNX0010 and 786-O RCC cells were treated with various combinations of lonafarnib ([…]), sunitinib ([…]), and pazopanib ([…]) for 72 hours. Cell viability was examined using Blue […]-BLUE® assay (PROMEGA®). In Panel B, 786-O and PNX0010 RCC cells were treated with lonafarnib ([…]) and/or sunitinib ([…]) for 24 hours. DNA fragmentation was examined by the APO-BRDU kit (The Phoenix Flow Systems) followed by flow cytometry analysis.

[3] = system: PNX0010 RCC cells; experiment: Cell viability, […]-BLUE assay, PNX0010; type: cell-based, human; set-up: dose or concentration left out as unconfirmed; conditions: 72 hours
Description: as §1

[4] = system: 786-O cells; experiment: Lysosomal sequestration of sunitinib by fluorescent microscopy; type: cell-based, human; set-up: Sequestration of sunitinib within lysosomes: dose or concentration left out as unconfirmed
[5] = system: PNXC0010 RCC tumors; type: in vivo; conditions: PNX0010 subcutaneous xenografts, C.B17/lcrscid mice, 40 mg/kg each drug, orally 3 times/week
Description: PNX0010 subcutaneous xenografts were established in 6 week old male C.B17/lcrscid mice. The mice were treated orally 3 times/week with (i) 10% 2-hydroxypropyl-b-cyclodextrin in PBS (control); (ii) sunitinib (40 mg/kg); (iii) lonafarnib (40 mg/kg); or with sunitinib and lonafarnib combined (n=5 mice/group). Tumor volumes were calculated by the formula: (volume=0.52×(width)2×length).

SMILES: NC(=O)N1CCC(CC(=O)N2CCC([C@H]3c4ncc(Br)cc4CCc4cc(Cl)cc(Br)c43)CC2)CC1 [Lonafarnib, lonafarnib]
EC50 [1]: 3.8 µM
ED75 [1]: 63.3 µM
ED90 [1]: 5672.0 µM
Effect on cell viability [2]: modest effect
Effect on cell viability [3]: modest effect
Sequestration of sunitinib within lysosomes ([4]; 60 minutes): significantly reduced
Total cellular accumulation of sunitinib ([4]; effect of lonafarnib, data not shown): not affected
Growth of xenograft tumors (tumor volume) [5]: moderate decrease

SMILES: CNC(=O)c1ccccc1Sc1ccc2c(/C=C/c3ccccn3)n[nH]c2c1 [Axitinib, axitinib]
ED75 [1]: 7.5 µM
ED90 [1]: 65.1 µM

EC50 [1]: 2.4 µM
SMILES: CCN(CC)CCNC(=O)c1c(C)[nH]c(/C=C2\C(=O)Nc3ccc(F)cc32)c1C [Sunitinib, sunitinib]
ED75 [1]: 6.7 µM
ED90 [1]: 44.3 µM
